≈ marks a conversion by molar mass, not a printed value. Read-outs that look alike come from different tables or passages of the source.
Tests used:
C. albicans ATCC10231 = test: Antimicrobial broth micro-dilution assay (MIC); type: cell-based; conditions: Candida albicans, read-out: Minimum inhibitory concentration (MIC)
From the text: (§1) 3. Bioactivity and Toxicity Assays
(§2) Antimicrobial assay: According to the standard broth micro-dilution assays, following the Standards of European Committee on Antimicrobial Susceptibility Testing (v 7.3.1: Method for the determination of broth dilution minimum inhibitory concentrations of antifungal agents for yeasts) for Candida spp., and according to the standard broth micro-dilution assays, recommended by the National Committee for Clinical Laboratory Standards (M07-A8) for bacteria MIC values of compounds were determinate. Compounds were dissolved in DMSO at a concentration of 50 mg/mL, and the highest tested concentration was 250 µg/mL. The inoculums were 1x10^5 colony forming units (CFU/mL), for Candida species, and bacteria species, 5x10^5 colony forming units (CFU/mL). The MIC value was recorded as the lowest concentration that inhibited the growth after 24 h at 37 °C. Additionally, 5 µL from each well of 96 well plates was transferred to Luria Agar (LA) plates for bacteria and Sabouraud agar (SAB) plates for Candida spp. and incubated for an additional 24 h at 37 °C, to determine MBC (Minimum bactericidal/fungicidal concentration) values. In Table 1. Are labeled compounds showing a difference in MBC and previously determined MIC values. […]

B. subtilis ATCC6633 = test: Antimicrobial broth micro-dilution assay (MIC); type: cell-based; conditions: Bacillus subtilis, read-out: Minimum inhibitory concentration (MIC)
From the text: as §1, §2

S. aureus MRSA = test: Antimicrobial broth micro-dilution assay (MIC); type: cell-based; conditions: Staphylococcus aureus, read-out: Minimum inhibitory concentration (MIC)
From the text: as §1, §2

S. aureus ATCC25923 = test: Antimicrobial broth micro-dilution assay (MIC); type: cell-based; conditions: Staphylococcus aureus, read-out: Minimum inhibitory concentration (MIC)
From the text: as §1, §2

E. coli NCTC9001 = test: Antimicrobial broth micro-dilution assay (MIC); type: cell-based; conditions: Escherichia coli, read-out: Minimum inhibitory concentration (MIC)
From the text: as §1, §2

P. aeruginosa ATCC27853 = test: Antimicrobial broth micro-dilution assay (MIC); type: cell-based; conditions: Pseudomonas aeruginosa, read-out: Minimum inhibitory concentration (MIC)
From the text: as §1, §2

[1] = test system: two S. aureus strains and B. subtilis ATCC6633; test: Antimicrobial assay, Gram-positive bacteria; type: cell-based; conditions: from MIC values
From the text: as §1, §2

Caenorhabditis elegans = test: In vivo toxicity C. elegans survival assay; conditions: C. elegans model
Description: 3. Bioactivity and Toxicity Assays […]
Compounds were dissolved in DMSO at a concentration of 50 mg/mL, and the highest tested concentration was 250 µg/mL. […]
In vivo toxicity C. elegans assay: The C. elegans survival assay was carried out as described previously with some modifications. 8 In brief, synchronized worms (L4 stage) were suspended in a medium containing 95% M9 buffer (3.0 g of KH2PO4, 6.0 g of Na2HPO4, 5.0 g of NaCl, and 1 mL of 1 M MgSO4 × 7H2O in 1 L of water), 5% LB (Luria-Bertani) broth (Oxoid, Basingstoke, UK), and 10 μg of cholesterol (Sigma -Aldrich, Munich, Germany) per mL. The experiment was carried out in 96 -well flat -bottomed microtiter plates (Sarstedt, Nümbrecht, Germany) in the final volume of 100 μL per wel l. 25 μL of this suspension of nematodes (25 –35 nematodes) were transferred to the wells of a 96 -well microtiter plate, where 50 μL of the medium was previously added. Next, 25 μL of a solvent control (DMSO) or 25 μL of a concentrated solution was added to the test wells. The final concentrations of the compounds were 50, 25, 10, and 5 µg/mL. Subsequently, the plates were incubated at 25 °C for 2 days. The fraction of dead worms was determined after 48 h by counting the number of dead worms and the total number of worms in each well, using a stereomicroscope (SMZ143-N2GG, Motic, Germany).
As a negative control experiment, nematodes were exposed to the medium containing 1% […]
Ergosterol biosynthesis assay: Ergosterol levels were measured according to the published procedure with some minor modifications. 10 Briefly, a sing le C. albicans colony from an overnight Sabouraud dextrose agar plate was used to inoculate 50 ml of Sabouraud dextrose broth containing 0.5 MIC concentrated compounds. Incubation was performed for 18 h at 37 °C on the rotary shaker at 180 rpm. Cells were harvested by centrifugation at 3000 rpm for 5 min and washed once with sterile distilled water. The net wet weight of the cell pellet was determined. Three milliliters of 25% alcoholic potassium hydroxide solution (25 g of KOH and 35 ml of sterile distill ed water, brought to 100 ml with 100% ethanol), was added to each pellet and vortex mixed for 1 min and incubated in an 85 °C water bath for 1 h. Tubes were cooled to room temperature and extraction of sterols was done with the addition of a mixture of 1 ml of sterile distilled water and 3 ml of n-heptane followed by vigorous vortex mixing for 3 min. The heptane layer was used for spectrophotometrically measuring ergosterol concentrations by scanning absorbance between 240 nm and 300 nm using Ultrospec 3300pro 573 (Amer sham Biosciences, Amersham, UK).

[2] = test system: human lung fibroblast cell line (MRC-5); test: Cytotoxicity evaluation by MTT assay; type: cell-based
From the text: as §1
Antimicrobial assay: According to the standard broth micro-dilution assays, following the Standards of European Committee on Antimicrobial Susceptibility Testing (v 7.3.1: Method for the determination of broth dilution minimum inhibitory concentrations of antifungal agents for yeasts) for Candida spp., and according to the standard broth micro-dilution assays, recommended by the National Committee for Clinical Laboratory Standards (M07-A8) for bacteria MIC values of compounds were determinate. Compounds were dissolved in DMSO at a concentration of 50 mg/mL, and the highest tested concentration was 250 µg/mL. The inoculums were 1x10^5 colony forming units (CFU/mL), for Candida species, and bacteria species, 5x10^5 colony forming units (CFU/mL). The MIC value was recorded as the lowest concentration that inhibited the growth after 24 h at 37 °C. Additionally, 5 µL from each well of 96 well plates was transferred to Luria Agar (LA) plates for bacteria and Sabouraud agar (SAB) plates for Candida spp. and incubated for an additional 24 h at 37 °C, to determine MBC (Minimum bactericidal/fungicidal concentration) values. In Table 1. Are labeled compounds showing a difference in MBC and previously determined MIC values.
Cytotoxicity evaluation: Antiproliferative activity was tested by MTT assay (3-(4,5-dimethylthiazol-2-yl)-2,5-diphenyltetrazoliumbromide) on a human lung fibroblast cell line (MRC-5; ATCC collection). Pre-grown (24 h) cell monolayers (1x10^4 cells per well) in RPMI 1640 medium supplemented with 100 μg/mL streptomycin, 100 U/mL penicillin, and 10% (v/v) FBS (all from Sigma, Munich, Germany) containing the tested compounds at concentrations ranging from 5 to 20 μg/mL were incubated in a humidified atmosphere of 95% air and 5% CO2 at 37 °C for 48 h. The cell viability (extent of MTT reduction) was measured spectrophotometrically at 540 nm using the Epoch 2000 multiplate reader, and the cell survival was expressed as a percentage of the control (untreated cells). Cytotoxicity was expressed as the concentration of the compound inhibiting cell growth by 50% (IC 50). […]

[3] = C. albicans ATCC10231, 24 h at 37 °C, highest tested concentration 250 µg/mL
[4] = B. subtilis ATCC6633, 24 h at 37 °C, highest tested concentration 250 µg/mL
[5] = S. aureus MRSA, 24 h at 37 °C, highest tested concentration 250 µg/mL
[6] = S. aureus ATCC25923, 24 h at 37 °C, highest tested concentration 250 µg/mL
[7] = E. coli NCTC9001, 24 h at 37 °C, highest tested concentration 250 µg/mL
[8] = P. aeruginosa ATCC27853, 24 h at 37 °C, highest tested concentration 250 µg/mL

Row | SMILES | MIC (C. albicans ATCC10231; [3]) [µg/mL] | MIC (B. subtilis ATCC6633; [4]) [µg/mL] | MIC (S. aureus MRSA; [5]) [µg/mL] | MIC (S. aureus ATCC25923; [6]) [µg/mL] | MIC (E. coli NCTC9001; [7]) [µg/mL] | MIC (P. aeruginosa ATCC27853; [8]) [µg/mL] | improvement of antibacterial activity compared to sorrentanone (7) [1] | in vivo toxicity (in words) (Caenorhabditis elegans) | cell survival ([2]; MRC-5 cells, 10 µg/mL, 48 h) | selectivity index (SI) ([2]; cytotoxicity versus antibiotic activity, calculation not described) | MIC (C. albicans ATCC10231; ATCC10231, 24 h) [µg/mL] | MIC (B. subtilis ATCC6633; ATCC6633, 24 h) [µg/mL] | MIC (S. aureus MRSA; MRSA, 24 h) [µg/mL] | MIC (S. aureus ATCC25923; ATCC25923, 24 h) [µg/mL] | MIC (E. coli NCTC9001; NCTC9001, 24 h) [µg/mL] | MIC (P. aeruginosa ATCC27853; ATCC27853, 24 h) [µg/mL]
1 | COC(=O)C1=C(C)C(=O)C(O)=C(C)C1=O [compound 28] | > 250 | 15.6 (≈ 74.2 µM) | 31.2 (≈ 148 µM) | 62.5 (≈ 297 µM) | > 250 | > 250 | – | – | – | – | – | – | – | – | – | –
2 | CCOC(=O)C1=C(C)C(=O)C(O)=C(C)C1=O [compound 29] | > 250 | 15.6 (≈ 69.6 µM) | 62.5 (≈ 279 µM) | 62.5 (≈ 279 µM) | > 250 | > 250 | – | – | – | – | – | – | – | – | – | –
3 | CCCOC(=O)C1=C(C)C(=O)C(O)=C(C)C1=O [compound 30] | > 250 | 15.6 (≈ 65.5 µM) | 62.5 (≈ 262 µM) | 62.5 (≈ 262 µM) | > 250 | > 250 | – | – | – | – | – | – | – | – | – | –
4 | CCCCOC(=O)C1=C(C)C(=O)C(O)=C(C)C1=O [compound 31] | > 250 | 15.6 (≈ 61.8 µM) | 31.2 (≈ 124 µM) | 31.2 (≈ 124 µM) | > 250 | > 250 | – | – | – | – | – | – | – | – | – | –
5 | CC1=C(O)C(=O)C(C)=C(C(=O)OCC(C)C)C1=O [compound 32] | > 250 | 31.2 (≈ 124 µM) | 31.2 (≈ 124 µM) | 31.2 (≈ 124 µM) | > 250 | > 250 | – | – | – | – | – | – | – | – | – | –
6 | CCCCCOC(=O)C1=C(C)C(=O)C(O)=C(C)C1=O [compound 33] | > 250 | 15.6 (≈ 58.6 µM) | 15.6 (≈ 58.6 µM) | 15.6 (≈ 58.6 µM) | > 250 | > 250 | two- to four-fold improved activity | comparatively lower in vivo toxicity | – | – | – | – | – | – | – | –
7 | CC1=C(O)C(=O)C(C)=C(C(=O)OCCC(C)C)C1=O [compound 34] | > 250 | 15.6 (≈ 58.6 µM) | 15.6 (≈ 58.6 µM) | 15.6 (≈ 58.6 µM) | > 250 | > 250 | two- to four-fold improved activity | – | – | – | – | – | – | – | – | –
8 | CCCCCCOC(=O)C1=C(C)C(=O)C(O)=C(C)C1=O [compound 35] | 62.5 (≈ 223 µM) | 7.81 (≈ 27.9 µM) | 31.2 (≈ 111 µM) | 31.2 (≈ 111 µM) | > 250 | > 250 | – | – | – | – | – | – | – | – | – | –
9 | C=CCCOC(=O)C1=C(C)C(=O)C(O)=C(C)C1=O [compound 37] | > 250 | 31.2 (≈ 125 µM) | 31.2 (≈ 125 µM) | 62.5 (≈ 250 µM) | > 250 | > 250 | – | – | – | – | – | – | – | – | – | –
10 | C#CCCOC(=O)C1=C(C)C(=O)C(O)=C(C)C1=O [compound 38] | > 250 | 31.2 (≈ 126 µM) | 31.2 (≈ 126 µM) | 62.5 (≈ 252 µM) | > 250 | > 250 | – | – | – | – | – | – | – | – | – | –
11 | C#CCCCOC(=O)C1=C(C)C(=O)C(O)=C(C)C1=O [compound 40] | 62.5 (≈ 238 µM) | 31.2 (≈ 119 µM) | 62.5 (≈ 238 µM) | 31.2 (≈ 119 µM) | > 250 | > 250 | – | – | over 60% | – | – | – | – | – | – | –
12 | CN[C@H](CC(C)C)C(=O)N[C@H]1C(=O)N[C@@H](CC(N)=O)C(=O)N[C@H]2C(=O)N[C@H]3C(=O)N[C@H](C(=O)N[C@H](C(=O)O)c4cc(O)cc(O)c4-c4cc3ccc4O)[C@H](O)c3ccc(c(Cl)c3)Oc3cc2cc(c3O[C@@H]2O[C@H](CO)[C@@H](O)[C@H](O)[C@H]2O[C@H]2C[C@](C)(N)[C@H](O)[C@H](C)O2)Oc2ccc(cc2Cl)[C@H]1O [vancomycin, reference compound] | – | – | – | – | – | – | – | – | – | 200 | 50 (≈ 34.5 µM) | 0.4 (≈ 0.276 µM) | 0.5 (≈ 0.345 µM) | 1 (≈ 0.69 µM) | 125 (≈ 86.3 µM) | 125 (≈ 86.3 µM)

Source: paper PMC12227560, “Total synthesis of a sorrentanone ester library and evaluation of its antimicrobial potential” (Scientific Reports, 2025)
